Values joined by “and” are separate entries in the source; they are usually repeats but may differ in a detail not shown here. Equal values may be shown once.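 Five concentrations, 48 hours, 96-well plates. GI50: concentration for 50% inhibition of growth. Definition used: TGI = concentration required for complete inhibition of growth.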
What was measured:
Experiment in all cases: inhibition of tumour cell growth, NCI panel, 48 h
HCT-116 colon = system: HCT-116 colon
TK-10 renal = system: TK-10 renal
UACC-62 melanoma = system: UACC-62 melanoma
DU-145 prostate = system: DU-145 prostate
HCT-15 colon = system: HCT-15 colon
A549 NSCLC = system: A549 NSCLC
OVCAR-4 ovarian = system: OVCAR-4 ovarian
DMS 114 small cell lung = system: DMS 114 small cell lung
HL-60(TB) leukemia = system: HL-60(TB) leukemia
MDA-MB-435 = system: MDA-MB-435
M14 melanoma = system: M14 melanoma
NCI-H23 lung = system: NCI-H23 lung
BT-549 breast = system: BT-549 breast
SNB-78 CNS = system: SNB-78 CNS
SK-OV-3 ovarian = system: SK-OV-3 ovarian
ACHN renal = system: ACHN renal
U251 CNS = system: U251 CNS
COLO 205 colon = system: COLO 205 colon
NCI-H460 lung = system: NCI-H460 lung
DLD-1 colon = system: DLD-1 colon
SK-MEL-28 melanoma = system: SK-MEL-28 melanoma
HT29 colon = system: HT29 colon
CCRF-CEM leukemia = system: CCRF-CEM leukemia
RXF 393 renal = system: RXF 393 renal
DMS 273 small cell lung = system: DMS 273 small cell lung
HOP-92 NSCLC = system: HOP-92 NSCLC

## CCN(CC)CCOc1cccc2nc3c(cc12)Cn1c-3cc2c(c1=O)COC(=O)C2(O)CC (stereo not given)
HCT-116 colon
  TGI: 10.9 µM and 14.2 µM
TK-10 renal
  GI50: 26.7 µM
  TGI: > 100 µM
UACC-62 melanoma
  GI50: 0.147 µM and 0.273 µM
  TGI: 0.955 µM and 1.56 µM
DU-145 prostate
  GI50: 0.423 µM
  TGI: 3.77 µM
HCT-15 colon
  GI50: 5.14 µM and 8.13 µM
  TGI: 26.1 µM and 37.8 µM
A549 NSCLC
  GI50: 0.787 µM and 2.06 µM
  TGI: 20.4 µM and 13 µM
OVCAR-4 ovarian
  GI50: 11.2 µM and 8.77 µM
  TGI: 25.9 µM and 29.1 µM
DMS 114 small cell lung
  GI50: 0.139 µM and 0.206 µM
HL-60(TB) leukemia
  GI50: 0.304 µM
  TGI: 1.95 µM
MDA-MB-435
  GI50: 12.2 µM
  TGI: 28.2 µM
M14 melanoma
  GI50: 1.11 µM
  TGI: 11.5 µM
NCI-H23 lung
  GI50: 0.506 µM and 0.87 µM
  TGI: 4.19 µM and 4.86 µM
BT-549 breast
  GI50: 2.99 µM
  TGI: 17.2 µM
SNB-78 CNS
  GI50: 14.1 µM
  TGI: 80.2 µM
SK-OV-3 ovarian
  GI50: 4.39 µM
  TGI: > 43.4 µM
ACHN renal
  GI50: 0.675 µM
  TGI: > 100 µM
U251 CNS
  GI50: 0.0867 µM and 0.358 µM
  TGI: 1.43 µM and 11.1 µM
COLO 205 colon
  GI50: 6.58 µM and 1.94 µM
  TGI: 21.8 µM and 30.5 µM
NCI-H460 lung
  GI50: 0.0754 µM and 0.282 µM
  TGI: 1.88 µM and 11.8 µM
DLD-1 colon
  GI50: 10.9 µM
  TGI: 38.8 µM
SK-MEL-28 melanoma
  GI50: 7.51 µM and 12.3 µM
  TGI: 20.7 µM and 30 µM
HT29 colon
  GI50: 2.19 µM and 2.44 µM
  TGI: 12.7 µM and 13.5 µM
CCRF-CEM leukemia
  GI50: 0.0125 µM and 0.0735 µM
  TGI: 0.791 µM
RXF 393 renal
  GI50: 1.4 µM and 10.6 µM
  TGI: 6.08 µM and 28.7 µM
DMS 273 small cell lung
  GI50: 0.086 µM and 0.33 µM
  TGI: 1.58 µM and 11.8 µM
HOP-92 NSCLC
  GI50: 5.42 µM and 4.83 µM
  TGI: 22.5 µM and 18.3 µM

From PubChem BioAssay (NCI)
